Drawing on PubChem BioAssay (NCI), this text covers GI50 and TGI for 10 molecules.

Each structure is given as a SMILES string. Several values for one entry are separate records, joined by “and”; a condition that tells them apart may be missing. Equal values may be shown once.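 How tested: cells in 96-well plates exposed to compound for 48 hours at five concentrations. At the GI50, growth is halved. At the TGI there is no net growth.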

Among the test systems are SK-MEL-2 melanoma; HOP-62 NSCLC; DU-145 prostate; SF-539 CNS; OVCAR-3 ovarian; UACC-257 melanoma; MDA-MB-435; T-47D breast; MDA-MB-231 breast; HCT-116 colon.
Assay in all cases: growth of human tumour cells (NCI), 48 h

As for `O=C(O)CN(CCN(CC(=O)O)CC(=O)O)CC(=O)O.[Cu+2].[Na+]`, the GI50 in the assay with SK-MEL-2 melanoma was greater than 100 µM; in the assay with HOP-62 NSCLC, 26.2 µM; with DU-145 prostate it was greater than 100 µM; in the assay on SF-539 CNS, greater than 100 µM; in the assay on OVCAR-3 ovarian it was 19.2 µM; with UACC-257 melanoma, greater than 100 µM. Further, the GI50 in the assay with MDA-MB-435, in the assay with T-47D breast, in the assay on MDA-MB-231 breast and in the assay on HCT-116 colon was greater than 100 µM in each case. Moreover, the TGI in the assay with SK-MEL-2 melanoma is greater than 100 µM; with HOP-62 NSCLC, 79.5 µM; in the assay on DU-145 prostate it was greater than 100 µM; in the assay on SF-539 CNS it was greater than 100 µM; in the assay on OVCAR-3 ovarian, 51.8 µM; in the assay with UACC-257 melanoma it was greater than 100 µM. Moreover, the TGI with MDA-MB-435, in the assay on T-47D breast, in the assay on MDA-MB-231 breast and in the assay on HCT-116 colon was greater than 100 µM in each case.

For `C=C1C(C)C2C(Cc3ccccc3)NC(=O)C23C(OC(C)=O)C=CC(C)(O)C(=O)C(C)C/C=C/C3C1O` (stereo not drawn), the TGI in the assay with SK-MEL-2 melanoma is 74.8 µM; in the assay on DU-145 prostate, greater than 500 µM; with SF-539 CNS, 2.77 µM and 1.22 µM; in the assay on OVCAR-3 ovarian, greater than 500 µM; with UACC-257 melanoma, 45.4 µM and 335 µM; with MDA-MB-435, greater than 414 µM. In addition, the TGI with T-47D breast was greater than 357 µM; in the assay on MDA-MB-231 breast, greater than 220 µM; in the assay with HCT-116 colon, greater than 500 µM. Further, the GI50 in the assay on HOP-62 NSCLC is 0.0431 µM and 0.106 µM; with DU-145 prostate, 19.1 µM; with SF-539 CNS, 0.208 µM; in the assay on UACC-257 melanoma, 26.3 µM; in the assay on MDA-MB-435, 2.32 µM; in the assay on T-47D breast, 5.14 µM. Also, the figures for the GI50 in the assay on MDA-MB-231 breast and in the assay on HCT-116 colon were 0.193 µM and 1.04 µM, respectively.

In the case of `COc1cc(C2c3cc4c(cc3[C@@H](Nc3ccc(F)cc3)C3COC(=O)[C@H]23)OCO4)cc(OC)c1O` (stereo partly drawn), the TGI in the assay on SK-MEL-2 melanoma stood at 19.2 µM; in the assay with HOP-62 NSCLC, 3.3 µM; with DU-145 prostate it was 8.89 µM; with SF-539 CNS, 6.02 µM; in the assay on OVCAR-3 ovarian, 29.5 µM; in the assay with UACC-257 melanoma, 31.3 µM. The TGI in the assay on MDA-MB-435 was greater than 100 µM; with T-47D breast, 61.3 µM; in the assay with MDA-MB-231 breast, 17.4 µM; in the assay with HCT-116 colon, 22.3 µM. The figures for the GI50 in the assay on HOP-62 NSCLC and in the assay with SF-539 CNS were 0.416 µM and 0.708 µM, respectively.

Take `COc1cc2c3c(c4cc(OC)c(OC)cc4c2cc1OC)CN1CCC[C@H]1C3`: the GI50 in the assay with SK-MEL-2 melanoma was 0.0297 µM and < 0.01 µM; in the assay on HOP-62 NSCLC, 0.0409 µM and < 0.0147 µM; in the assay on DU-145 prostate it was 0.0205 µM; with SF-539 CNS, 0.0564 µM and 0.0157 µM; in the assay with MDA-MB-435, 0.0298 µM and < 0.0147 µM; with T-47D breast, 0.0192 µM. The TGI with HOP-62 NSCLC was 2.85 µM; in the assay on DU-145 prostate, 0.187 µM; with SF-539 CNS, 2.94 µM and 1.12 µM; with OVCAR-3 ovarian it was 0.379 µM and 1.15 µM; in the assay on UACC-257 melanoma it was 0.338 µM and 0.937 µM; in the assay on MDA-MB-435 it was 0.494 µM and 1.29 µM. Further, the TGI is 0.33 µM in the assay on T-47D breast; 0.174 µM in the assay on MDA-MB-231 breast; 1.75 µM and 1.04 µM in the assay with HCT-116 colon.

Take `COc1cc([C@@H]2c3cc4c(cc3[C@@H](OC3OC5COC(C)OC5C(O)C3O)[C@H]3COC(=O)[C@H]23)OCO4)cc(OC)c1O` (stereo partly drawn): the GI50 in the assay with DU-145 prostate is 2.3 µM and 1.67 µM; in the assay with T-47D breast it was 0.516 µM; in the assay on MDA-MB-231 breast it was 7.49 µM and 5.82 µM. The TGI is 19 µM and 50 µM with MDA-MB-435; 5.18 µM with T-47D breast; > 35 µM and 34.4 µM and 8.11 µM in the assay with MDA-MB-231 breast; 25.8 µM and 90.4 µM and 130 µM in the assay with HCT-116 colon.

As to `Cc1ccc2nc(CN(CCN(Cc3nc4ccc(C)cc4[nH]3)Cc3nc4ccc(C)cc4[nH]3)Cc3nc4ccc(C)cc4[nH]3)[nH]c2c1`, the GI50 with SK-MEL-2 melanoma is 2.16 µM; in the assay with HOP-62 NSCLC, 1.83 µM; with DU-145 prostate, 1.79 µM; in the assay on SF-539 CNS, 1.77 µM; with OVCAR-3 ovarian it was 1.84 µM; with UACC-257 melanoma, 1.81 µM. The values for the GI50 with MDA-MB-435, in the assay with T-47D breast and in the assay with MDA-MB-231 breast were 1.62 µM, 1.71 µM and 1.88 µM, respectively. The TGI with SK-MEL-2 melanoma is 3.85 µM; in the assay with HOP-62 NSCLC, 3.24 µM; in the assay on DU-145 prostate, 3.18 µM; in the assay with SF-539 CNS, 3.16 µM; in the assay on OVCAR-3 ovarian, 3.31 µM; in the assay with UACC-257 melanoma, 3.24 µM. Besides, the figures for the TGI with MDA-MB-435, in the assay with T-47D breast and with MDA-MB-231 breast were 2.98 µM, 3.12 µM and 3.3 µM, respectively.

Turning to `ClC/C=C/CSc1ncnc2nc[nH]c12`, the GI50 with HOP-62 NSCLC, in the assay on DU-145 prostate, with SF-539 CNS, with OVCAR-3 ovarian, with UACC-257 melanoma and with MDA-MB-435 was greater than 100 µM each time. Besides, the GI50 in the assay on T-47D breast, in the assay with MDA-MB-231 breast and with HCT-116 colon was greater than 100 µM throughout. Besides, the TGI in the assay on HOP-62 NSCLC, in the assay with DU-145 prostate, with SF-539 CNS, in the assay with OVCAR-3 ovarian, in the assay with UACC-257 melanoma and in the assay on MDA-MB-435 was greater than 100 µM in each case. Besides, the TGI in the assay on T-47D breast, with MDA-MB-231 breast and in the assay with HCT-116 colon was greater than 100 µM each time.

With `COc1ccccc1NC(=O)c1sc2ncn(CCOc3ccccc3)c(=O)c2c1C`, the GI50 with SK-MEL-2 melanoma was 3.37 µM; in the assay on HOP-62 NSCLC it was 15.6 µM; with DU-145 prostate, greater than 50 µM; in the assay on SF-539 CNS, 2.77 µM; with OVCAR-3 ovarian, 2.91 µM; with UACC-257 melanoma it was 1.49 µM. For the same molecule, the GI50 in the assay with T-47D breast is greater than 50 µM; in the assay with MDA-MB-231 breast it was 2.61 µM; with HCT-116 colon, 1.99 µM. In addition, the TGI with SK-MEL-2 melanoma was greater than 50 µM; in the assay with HOP-62 NSCLC it was greater than 50 µM; with DU-145 prostate it was greater than 50 µM; in the assay with SF-539 CNS, 12.2 µM; in the assay on OVCAR-3 ovarian it was greater than 50 µM; with UACC-257 melanoma, greater than 50 µM. Also, the TGI with T-47D breast, in the assay with MDA-MB-231 breast and with HCT-116 colon was greater than 50 µM in each case.

For the molecule `COc1ccc2c(c1O)[C@@]13CCCC=C1[C@@H](C2)N(C)CC3`, the TGI in the assay on SK-MEL-2 melanoma, in the assay with HOP-62 NSCLC, in the assay with DU-145 prostate, with OVCAR-3 ovarian, in the assay with UACC-257 melanoma and in the assay on MDA-MB-435 was greater than 100 µM in each case. Further, the TGI in the assay with T-47D breast, with MDA-MB-231 breast and in the assay with HCT-116 colon was greater than 100 µM in each case.

`CC1=C(C(=S)Nc2ccc(Cl)c(C(=O)OC(C)C)c2)SCCO1`: the TGI in the assay on SK-MEL-2 melanoma was found to be 48.9 µM; in the assay with DU-145 prostate, 57.1 µM; with SF-539 CNS it was 38.4 µM; with OVCAR-3 ovarian, 52.7 µM; with UACC-257 melanoma, 47 µM; in the assay on MDA-MB-435 it was 42.7 µM. Further, the TGI with T-47D breast came to 51.7 µM; in the assay on MDA-MB-231 breast, 33.2 µM; with HCT-116 colon, 28.6 µM.
